Data taken from ChEMBL document CHEMBL4765407, “Design, synthesis and high antitumor potential of new unsymmetrical bisacridine derivatives towards human solid tumors, specifically pancreatic cancers and their unique ability to stabilize DNA G-quadruplexes” (Eur J Med Chem, 2020).

Key:
[1] = test system: DU-145; experiment: Cytotoxicity against human DU-145 cells assessed as reduction in cell viability measured after 72 hrs by SRB assay; type: functional, cell-based; conditions: DU-145, 72 h
[2] = test system: LNCaP; experiment: Cytotoxicity against human LNCaP cells assessed as reduction in cell viability measured after 72 hrs by SRB assay; type: functional, cell-based
[3] = test system: HT-29; experiment: Cytotoxicity against human HT-29 cells assessed as reduction in cell viability measured after 72 hrs by SRB assay; type: functional, cell-based; conditions: HT-29, 72 h
[4] = test system: NCI-H460; experiment: Cytotoxicity against human NCI-H460 cells assessed as reduction in cell viability measured after 72 hrs by SRB assay; type: functional, cell-based; conditions: NCI-H460, 72 h
[5] = test system: W256; experiment: Antitumour activity against Walker 256 adenocarcinoma cells implanted in Wistar rat assessed as increase in animal survival rate by measuring T/C ratio at 20 mg/kg, ip qd for 3 days administered on day 3,4,5 after tumor cell transplantation; type: functional; conditions: time 3 day
[6] = test system: MCF7; experiment: Cytotoxicity against human MCF7 cells assessed as reduction in cell viability measured after 72 hrs by SRB assay; type: functional, cell-based; conditions: MCF7, 72 h
[7] = test system: PANC-1; experiment: Cytotoxicity against human PANC-1 cells assessed as reduction in cell viability measured after 72 hrs by SRB assay; type: functional, cell-based; conditions: PANC-1, 72 h
[8] = test system: MIA PaCa-2; experiment: Cytotoxicity against human MIA PaCa-2 cells assessed as reduction in cell viability measured after 72 hrs by SRB assay; type: functional, cell-based; conditions: MIA PaCa-2, 72 h
[9] = test system: W256; experiment: Antitumour activity against Walker 256 adenocarcinoma cells implanted in Wistar rat assessed as increase in animal survival rate by measuring T/C ratio at 1.25 mg/kg, ip qd for 3 days administered on day 3,4,5 after tumor cell transplantation; type: functional; conditions: time 3 day
[10] = test system: HCT-116; experiment: Cytotoxicity against human HCT-116 cells assessed as reduction in cell viability measured after 72 hrs by SRB assay; type: functional, cell-based; conditions: HCT-116, 72 h
[11] = test system: W256; experiment: Antitumour activity against Walker 256 adenocarcinoma cells implanted in Wistar rat assessed as increase in animal survival rate by measuring T/C ratio at 5 mg/kg, ip qd for 3 days administered on day 3,4,5 after tumor cell transplantation; type: functional; conditions: time 3 day
[12] = test system: MDA-MB-231; experiment: Cytotoxicity against human MDA-MB-231 cells assessed as reduction in cell viability measured after 72 hrs by SRB assay; type: functional, cell-based; conditions: MDA-MB-231, 72 h
[13] = test system: PC-3; experiment: Cytotoxicity against human PC-3 cells assessed as reduction in cell viability measured after 72 hrs by SRB assay; type: functional, cell-based; conditions: PC-3, 72 h
[14] = test system: UMUC3; experiment: Cytotoxicity against human UMUC3 cells assessed as reduction in cell viability measured after 72 hrs by SRB assay; type: functional, cell-based; conditions: UMUC3, 72 h
[15] = test system: ASPC1; experiment: Cytotoxicity against human ASPC1 cells assessed as reduction in cell viability measured after 72 hrs by SRB assay; type: functional, cell-based; conditions: ASPC1, 72 h
[16] = test system: W256; experiment: Antitumour activity against Walker 256 adenocarcinoma cells implanted in Wistar rat assessed as increase in animal survival rate by measuring T/C ratio at 1 mg/kg, ip qd for 3 days administered on day 3,4,5 after tumor cell transplantation; type: functional; conditions: time 3 day
[17] = test system: DU-145; experiment: Antitumour activity against human DU-145 cells xenografted in Crl:Nu-Foxnl nu mouse assessed as inhibition of tumour growth at total effective dose of 6 mg/kg, ip measured on day 35; type: functional; conditions: DU-145, ip, 840 h, time 35 day, read-out: TGI
[18] = test system: HCT-116; experiment: Antitumour activity against human HCT-116 cells xenografted in Crl:Nu-Foxnl nu mouse assessed as inhibition of tumour growth at total effective dose of 5 mg/kg, ip measured on day 16; type: functional; conditions: HCT-116, ip, 384 h, time 16 day, read-out: TGI
[19] = test system: MIA PaCa-2; experiment: Antitumour activity against human MIA PaCa-2 cells xenografted in Crl:Nu-Foxnl nu mouse assessed as inhibition of tumour growth at total effective dose of 32 mg/kg, iv measured on day 26; type: functional; conditions: MIA PaCa-2, iv, 624 h, time 26 day, read-out: TGI
[20] = test system: DU-145; experiment: Antitumour activity against human DU-145 cells xenografted in Crl:Nu-Foxnl nu mouse assessed as inhibition of tumour growth at total effective dose of 24 mg/kg, ip measured on day 35; type: functional; conditions: DU-145, ip, 840 h, time 35 day, read-out: TGI
[21] = test system: Quadruplex DNA; experiment: Stabilization of 5'-FAM/3'-TAMRA labeled c-Myc promoter G4 quadruplex DNA FPu18 (unknown origin) assessed as change in melting temperature at 10 microM measured after 15 mins by FRET assay; type: nucleic-acid assay
[22] = test system: Quadruplex DNA; experiment: Stabilization of 5'-FAM/3'-TAMRA labeled telomeric G4 quadruplex DNA F21T (unknown origin) assessed as change in melting temperature at 10 microM measured after 15 mins by FRET assay; type: nucleic-acid assay
[23] = test system: Quadruplex DNA; experiment: Stabilization of 5'-FAM/3'-TAMRA labeled K-Ras G4 quadruplex DNA (unknown origin) assessed as change in melting temperature at 10 microM measured after 15 mins by FRET assay; type: nucleic-acid assay
[24] = test system: W256; experiment: Antitumour activity against Walker 256 adenocarcinoma cells implanted in Wistar rat assessed as increase in animal survival rate by measuring T/C ratio at 40 mg/kg, ip qd for 3 days administered on day 3,4,5 after tumor cell transplantation; type: functional; conditions: time 3 day
[25] = test system: W256; experiment: Antitumour activity against Walker 256 adenocarcinoma cells implanted in Wistar rat assessed as increase in animal survival rate by measuring T/C ratio at 10 mg/kg, ip qd for 3 days administered on day 3,4,5 after tumor cell transplantation; type: functional; conditions: time 3 day
[26] = Stabilization of ds 5'-FAM-d(TATAGCTATA-HEG-TATAGCTATA)-TAMRA-3' (unknown origin) assessed as change in melting temperature at 10 microM measured after 15 mins by FRET assay; conditions: Homo sapiens
[27] = test system: W256; experiment: Antitumour activity against Walker 256 adenocarcinoma cells implanted in Wistar rat assessed as increase in animal survival rate by measuring T/C ratio at 4 mg/kg, ip qd for 3 days administered on day 3,4,5 after tumor cell transplantation; type: functional; conditions: time 3 day
[28] = test system: HT-29; experiment: Antitumour activity against human HT-29 cells xenografted in Crl:Nu-Foxnl nu mouse assessed as inhibition of tumour growth at total effective dose of 24 mg/kg, ip measured on day 21; type: functional; conditions: HT-29, ip, 504 h, time 21 day, read-out: TGI
[29] = test system: HT-29; experiment: Antitumour activity against human HT-29 cells xenografted in Crl:Nu-Foxnl nu mouse assessed as inhibition of tumour growth at total effective dose of 24 mg/kg, iv measured on day 21; type: functional; conditions: HT-29, iv, 504 h, time 21 day, read-out: TGI
[30] = test system: NCI-H460; experiment: Antitumour activity against human NCI-H460 cells xenografted in Crl:Nu-Foxnl nu mouse assessed as inhibition of tumour growth at total effective dose of 30 mg/kg, iv measured on day 14; type: functional; conditions: 336 h, time 14 day, read-out: TGI

Row | Compound | IC50 [1] [nM] | IC50 [2] [nM] | IC50 [3] [nM] | IC50 [4] [nM] | IC50 [7] [nM] | IC50 [8] [nM] | IC50 [10] [nM] | further results
1 | Cc1ccc([N+](=O)[O-])c2c(NCCCN3CCN(CCCNc4ccc([N+](=O)[O-])c5[nH]c6ccc(O)cc6c(=O)c45)CC3)c3ccccc3nc12 | 61 | 4030 | 233 | 47 |  |  |  | T/C [5]: 250%
2 | Cc1ccc(NCCCNCCCNc2c3ccccc3nc3cccc([N+](=O)[O-])c23)c2c(=O)c3ccccc3[nH]c12 | 184 |  |  |  | 377 | 280 |  | IC50 [6]: 228 nM; T/C [9]: 300%
3 | Cc1ccc([N+](=O)[O-])c2c(NCCCN(C)CCCNc3ccc(C)c4[nH]c5ccccc5c(=O)c34)c3ccccc3nc12 | 190 | 197 | 123 | 71 |  |  | 120 | T/C [11]: 1300%
4 | Cc1ccc(NCCCN(C)CCCNc2c3ccccc3nc3cccc([N+](=O)[O-])c23)c2c(=O)c3ccccc3[nH]c12 | 25 |  | 49 |  | 40 |  |  | IC50 [12]: 39 nM
5 | CN(CCCNc1c2ccccc2nc2cccc([N+](=O)[O-])c12)CCCNc1ccc([N+](=O)[O-])c2[nH]c3ccc(O)cc3c(=O)c12 | 43 | 53 | 22 | 14 | 32 | 24 | 15 | IC50 [13]: 52 nM; IC50 [14]: 14 nM; IC50 [6]: 74 nM; IC50 [12]: 20 nM; IC50 [15]: 135 nM; T/C [16]: 350%; inhibition in vivo at 6 mg/kg [17]: 60%; inhibition in vivo at 5 mg/kg [18]: 32%; inhibition in vivo at 32 mg/kg [19]: 30%; inhibition in vivo at 24 mg/kg [20]: 52%; ΔTm [21]: 26.3 °C; ΔTm [22]: 34 °C; ΔTm [23]: 29.7 °C
6 | Cc1ccc([N+](=O)[O-])c2c(NCCNCCNc3ccc(C)c4[nH]c5ccccc5c(=O)c34)c3ccccc3nc12 | 599 | 250 | 413 |  |  |  |  | T/C [24]: 250%
7 | Cc1ccc([N+](=O)[O-])c2c(NCCCNCCCNc3ccc([N+](=O)[O-])c4[nH]c5ccc(O)cc5c(=O)c34)c3ccccc3nc12 | 78 | 123 | 129 | 73 |  |  | 88 | T/C [25]: 1500%
8 | Cc1ccc([N+](=O)[O-])c2c(NCCNc3ccc(C)c4[nH]c5ccccc5c(=O)c34)c3ccccc3nc12 | 417 |  | 1180 | 370 |  |  | 1270 | T/C [11]: 750%
9 | NC(CCN1CCN(CCCNc2ccc3nnn4c5ccc(O)cc5c(=O)c2c34)CC1)c1ccc2nc3ccccc3cc2c1[N+](=O)[O-] (stereo not given) | 17 |  |  |  | 36 | 17 |  | IC50 [12]: 29 nM; IC50 [15]: 137 nM; ΔTm [21]: 37.5 °C; ΔTm [22]: 27.5 °C; ΔTm [23]: 36.5 °C; ΔTm [26]: 5.9 °C
10 | Nc1ccn([C@@H]2O[C@H](CO)[C@@H](O)C2(F)F)c(=O)n1 [GEMCITABINE] |  |  |  |  | 22 |  |  | 
11 | Cc1ccc([N+](=O)[O-])c2c(NCCCN(C)CCCNc3ccc([N+](=O)[O-])c4[nH]c5ccc(O)cc5c(=O)c34)c3ccccc3nc12 | 73 | 377 | 200 | 46 |  |  |  | T/C [5]: 400%
12 | O=c1c2cc(O)ccc2[nH]c2c([N+](=O)[O-])ccc(NCCCN3CCN(CCCNc4c5ccccc5nc5cccc([N+](=O)[O-])c45)CC3)c12 | 20 | 117 | 38 | 20 | 43 | 12 | 11 | IC50 [13]: 31 nM; IC50 [14]: 33 nM; IC50 [6]: 61 nM; IC50 [12]: 12 nM; IC50 [15]: 210 nM; T/C [27]: 300%; inhibition in vivo at 24 mg/kg [28]: 25%; inhibition in vivo at 24 mg/kg [29]: 39%; inhibition in vivo at 30 mg/kg [30]: 24%; ΔTm [21]: 32.6 °C; ΔTm [22]: 16 °C; ΔTm [23]: 26.6 °C; ΔTm [26]: 3.3 °C
13 | O=c1c2ccccc2[nH]c2c([N+](=O)[O-])ccc(NCCCNCCNCCCNc3c4ccccc4nc4cccc([N+](=O)[O-])c34)c12 | 55 |  |  |  | 60 | 46 |  | T/C [9]: 250%
14 | Cc1ccc([N+](=O)[O-])c2c(NCCCNCCNCCCNc3ccc([N+](=O)[O-])c4[nH]c5ccccc5c(=O)c34)c3ccccc3nc12 | 88 |  |  |  | 142 | 110 |  | T/C [11]: 350%
15 | CCc1c2c(nc3ccc(OC(=O)N4CCC(N5CCCCC5)CC4)cc13)-c1cc3c(c(=O)n1C2)COC(=O)[C@]3(O)CC [IRINOTECAN] |  |  | 9500 |  |  |  | 9700 | 
